Data taken from patent US6914045B2, “Glycopeptide antibiotics” (Wyeth Holdings Corporation, priority 2001, dated 2005).
Values after ≈ are worked out from the molar mass of the structure shown.

Key:
Experiment in all cases: in vitro antibacterial evaluation, MIC by broth dilution
Assay type in all cases: cell-based
Escherichia coli = conditions: 18 hours at 35° C.
Method in brief: (§1)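 Broth dilution per NCCLS standard M7-A2 in Muller-Hinton II […], with an inoculum of 5×10^5 CFU/mL and antibiotic spanning 64-0.06 μg/mL. The MIC is the lowest concentration that inhibits growth of the organism.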

Staphylococcus sp. = conditions: broth dilution, 18 hours at 35° C.
Method in brief: as §1

Streptococcus sp. = conditions: broth dilution, 18 hours at 35° C.
Method in brief: as §1

Enterococcus sp. = conditions: broth dilution, 18 hours at 35° C.
Method in brief: as §1

## CCCCOC(=O)CCC1OCC2OC(OC3C(CO)OC(Oc4ccc(CC5NC(=O)C(C(C)c6ccccc6)NC(=O)CNC(=O)C(CO)NC(=O)C(C(O)C6CNC(=N)N6C6OC(CO)C(O)C(O)C6O)NC(=O)C(C(O)C6CNC(=N)N6)NC5=O)cc4)C(O)C3O)C(O)C(O)C2O1 (stereo not drawn) [Example 114, Cyclo[glycyl-β-methylphenylalanyl-O-[4-O-[4,6-O-(4-butoxy-4-oxobutylidene)hexopyranosyl]-hexopyranosyl]tyrosyl-3-(2-iminoimidazolidin-4-yl)seryl-3-(3-hexopyranosyl-2-iminoimidazolidin-4-yl)serylseryl]]
Escherichia coli; strain ATCC 25922
  MIC Escherichia coli (ATCC 25922): 64 µg/mL (≈ 44.6 µM)
Escherichia coli; strain GC 4559
  MIC Escherichia coli (GC 4559): 64 µg/mL (≈ 44.6 µM)
Escherichia coli; strain GC 4560
  MIC Escherichia coli (GC 4560): 1 µg/mL (≈ 0.697 µM)
Staphylococcus sp.
  MIC Coagulase Negative Staphylococcus (GC 4547): 2 µg/mL (≈ 1.39 µM)
  MIC Coagulase Negative Staphylococcus (GC 4548): 1 µg/mL (≈ 0.697 µM)
  MIC Coagulase Negative Staphylococcus (GC 4549): 2 µg/mL (≈ 1.39 µM)
  MIC Coagulase Negative Staphylococcus (GC 4551): 2 µg/mL (≈ 1.39 µM)
  MIC Coagulase Negative Staphylococcus (GC 6257): 1 µg/mL (≈ 0.697 µM)
  MIC Staphylococcus aureus (ATCC 29213): 2 µg/mL (≈ 1.39 µM)
  MIC Staphylococcus aureus (GC 1131): 2 µg/mL (≈ 1.39 µM)
  MIC Staphylococcus aureus (GC 3051): 2 µg/mL (≈ 1.39 µM)
  MIC Staphylococcus aureus (GC 3053): 2 µg/mL (≈ 1.39 µM)
  MIC Staphylococcus aureus (GC 4541): 2 µg/mL (≈ 1.39 µM)
  MIC Staphylococcus aureus (GC 4542): 1 µg/mL (≈ 0.697 µM)
  MIC Staphylococcus aureus (GC 4544): 2 µg/mL (≈ 1.39 µM)
  MIC Staphylococcus aureus (GC 4545): 2 µg/mL (≈ 1.39 µM)
  MIC Staphylococcus aureus-SMITH (GC 4543): 2 µg/mL (≈ 1.39 µM)
  MIC Staphylococcus haemolyticus (GC 4546): 1 µg/mL (≈ 0.697 µM)
Staphylococcus sp.; inoculum 5×10^5 CFU/mL, strain GC 1131
  MIC Staphylococcus aureus (GC 1131): 2 µg/mL (≈ 1.39 µM)
Staphylococcus sp.; strain ATCC 29213
  MIC Staphylococcus aureus (ATCC 29213): 2 µg/mL (≈ 1.39 µM)
Staphylococcus sp.; strain GC 3051
  MIC Staphylococcus aureus (GC 3051): 2 µg/mL (≈ 1.39 µM)
Staphylococcus sp.; strain GC 3053
  MIC Staphylococcus aureus (GC 3053): 2 µg/mL (≈ 1.39 µM)
Staphylococcus sp.; strain GC 4541
  MIC Staphylococcus aureus (GC 4541): 2 µg/mL (≈ 1.39 µM)
Staphylococcus sp.; strain GC 4542
  MIC Staphylococcus aureus (GC 4542): 1 µg/mL (≈ 0.697 µM)
Staphylococcus sp.; strain GC 4544
  MIC Staphylococcus aureus (GC 4544): 2 µg/mL (≈ 1.39 µM)
Staphylococcus sp.; strain GC 4545
  MIC Staphylococcus aureus (GC 4545): 2 µg/mL (≈ 1.39 µM)
Staphylococcus sp.; strain GC 4546
  MIC Staphylococcus haemolyticus (GC 4546): 1 µg/mL (≈ 0.697 µM)
Staphylococcus sp.; strain GC 4547
  MIC Coagulase Negative Staphylococcus (GC 4547): 2 µg/mL (≈ 1.39 µM)
Staphylococcus sp.; strain GC 4548
  MIC Coagulase Negative Staphylococcus (GC 4548): 1 µg/mL (≈ 0.697 µM)
Staphylococcus sp.; strain GC 4549
  MIC Coagulase Negative Staphylococcus (GC 4549): 2 µg/mL (≈ 1.39 µM)
Staphylococcus sp.; strain GC 4551
  MIC Coagulase Negative Staphylococcus (GC 4551): 2 µg/mL (≈ 1.39 µM)
Staphylococcus sp.; strain GC 6257
  MIC Coagulase Negative Staphylococcus (GC 6257): 1 µg/mL (≈ 0.697 µM)
Staphylococcus sp.; strain SMITH GC 4543
  MIC Staphylococcus aureus-SMITH (GC 4543): 2 µg/mL (≈ 1.39 µM)
Streptococcus sp.; Streptococcus agalactiae (GC 4564)
  MIC Streptococcus agalactiae (GC 4564): 0.5 µg/mL (≈ 0.348 µM)
Streptococcus sp.; Streptococcus pneumoniae (ATCC 6301)
  MIC Streptococcus pneumoniae (ATCC 6301): 0.12 µg/mL (≈ 0.0836 µM)
Streptococcus sp.; Streptococcus pneumoniae (GC 1894)
  MIC Streptococcus pneumoniae (GC 1894): <0.06 µg/mL
Streptococcus sp.; Streptococcus pneumoniae (GC 4565)
  MIC Streptococcus pneumoniae (GC 4565): 0.25 µg/mL (≈ 0.174 µM)
Streptococcus sp.; Streptococcus pyogenes (GC 4563)
  MIC Streptococcus pyogenes (GC 4563): 0.5 µg/mL (≈ 0.348 µM)
Streptococcus sp.; strain ATCC 6301
  MIC Streptococcus pneumoniae (ATCC 6301): 0.12 µg/mL (≈ 0.0836 µM)
Streptococcus sp.; strain GC 1894
  MIC Streptococcus pneumoniae (GC 1894): <0.06 µg/mL
Streptococcus sp.; strain GC 4563
  MIC Streptococcus pyogenes (GC 4563): 0.5 µg/mL (≈ 0.348 µM)
Streptococcus sp.; strain GC 4564
  MIC Streptococcus agalactiae (GC 4564): 0.5 µg/mL (≈ 0.348 µM)
Streptococcus sp.; strain GC 4565
  MIC Streptococcus pneumoniae (GC 4565): 0.25 µg/mL (≈ 0.174 µM)
Enterococcus sp.; Enterococcus avium (GC 4558)
  MIC Enterococcus avium (GC 4558): 8 µg/mL (≈ 5.57 µM)
Enterococcus sp.; Enterococcus faecalis (ATCC 29212)
  MIC Enterococcus faecalis (ATCC 29212): 4 µg/mL (≈ 2.79 µM)
Enterococcus sp.; Enterococcus faecalis (GC 2242)
  MIC Enterococcus faecalis (GC 2242): 4 µg/mL (≈ 2.79 µM)
Enterococcus sp.; Enterococcus faecalis (GC 2691)
  MIC Enterococcus faecalis (GC 2691): 4 µg/mL (≈ 2.79 µM)
Enterococcus sp.; Enterococcus faecalis (GC 3059)
  MIC Enterococcus faecalis (GC 3059): 8 µg/mL (≈ 5.57 µM)
Enterococcus sp.; Enterococcus faecalis (GC 4552)
  MIC Enterococcus faecalis (GC 4552): 4 µg/mL (≈ 2.79 µM)
Enterococcus sp.; Enterococcus faecalis (GC 4553)
  MIC Enterococcus faecalis (GC 4553): 8 µg/mL (≈ 5.57 µM)
Enterococcus sp.; Enterococcus faecalis (GC 4554)
  MIC Enterococcus faecalis (GC 4554): 4 µg/mL (≈ 2.79 µM)
Enterococcus sp.; Enterococcus faecalis (GC 6189)
  MIC Enterococcus faecalis (GC 6189): 4 µg/mL (≈ 2.79 µM)
Enterococcus sp.; Enterococcus faecium (GC 2243)
  MIC Enterococcus faecium (GC 2243): 4 µg/mL (≈ 2.79 µM)
Enterococcus sp.; Enterococcus faecium (GC 4556)
  MIC Enterococcus faecium (GC 4556): 4 µg/mL (≈ 2.79 µM)
Enterococcus sp.; Enterococcus faecium (GC 4557)
  MIC Enterococcus faecium (GC 4557): 2 µg/mL (≈ 1.39 µM)
Enterococcus sp.; strain ATCC 29212
  MIC Enterococcus faecalis (ATCC 29212): 4 µg/mL (≈ 2.79 µM)
Enterococcus sp.; strain GC 2242
  MIC Enterococcus faecalis (GC 2242): 4 µg/mL (≈ 2.79 µM)
Enterococcus sp.; strain GC 2243
  MIC Enterococcus faecium (GC 2243): 4 µg/mL (≈ 2.79 µM)
Enterococcus sp.; strain GC 2691
  MIC Enterococcus faecalis (GC 2691): 4 µg/mL (≈ 2.79 µM)
Enterococcus sp.; strain GC 3059
  MIC Enterococcus faecalis (GC 3059): 8 µg/mL (≈ 5.57 µM)
Enterococcus sp.; strain GC 4552
  MIC Enterococcus faecalis (GC 4552): 4 µg/mL (≈ 2.79 µM)
Enterococcus sp.; strain GC 4553
  MIC Enterococcus faecalis (GC 4553): 8 µg/mL (≈ 5.57 µM)
Enterococcus sp.; strain GC 4554
  MIC Enterococcus faecalis (GC 4554): 4 µg/mL (≈ 2.79 µM)
Enterococcus sp.; strain GC 4556
  MIC Enterococcus faecium (GC 4556): 4 µg/mL (≈ 2.79 µM)
Enterococcus sp.; strain GC 4557
  MIC Enterococcus faecium (GC 4557): 2 µg/mL (≈ 1.39 µM)
Enterococcus sp.; strain GC 4558
  MIC Enterococcus avium (GC 4558): 8 µg/mL (≈ 5.57 µM)
Enterococcus sp.; strain GC 6189
  MIC Enterococcus faecalis (GC 6189): 4 µg/mL (≈ 2.79 µM)
